According to patent US9550751B2, “Processes for the preparation of pesticidal compounds” (Dow AgroSciences LLC, priority 2013, dated 2017):
Structures can show the parent of a compound that is named as a salt. Where two headings read alike, the source gives them in different places.

How the values were obtained:
[1] = system: Green Peach Aphid (Myzus persicae) (MYZUPE); assay: Bioassays on Green Peach Aphid (GPA), foliar spray on cabbage seedlings; format: in vivo; details: 72 h, read-out: MYZUPE rating (% Control of Mortality)
Protocol: Several molecules disclosed herein were tested against GPA using procedures described below.
Cabbage seedling grown in 3-in pots, with 2-3 small (3-5 cm) true leaves, were used as test substrate. The seedlings were infested with […] (wingless adult and nymph stages) one day prior to chemical application. Four pots with individual seedlings were used for each treatment. Test compounds (2 mg) were dissolved in 2 mL of acetone/MeOH (1:1) solvent, forming stock solutions of 1000 ppm test compound. The stock solutions were diluted 5× with 0.025% Tween 20 in water to obtain the solution at 200 ppm test compound. A hand-held aspirator-type sprayer was used for spraying a solution to both sides of the cabbage leaves until runoff. Reference plants (solvent check) were sprayed with the diluent only containing 20% by volume acetone/MeOH (1:1) solvent. Treated plants were held in a holding room for three days at approximately 25° C. and ambient relative humidity (RH) prior to grading. Evaluation was conducted by counting the number of live aphids per plant under a microscope. Percent Control was measured by using Abbott's correction formula (W. S. Abbott, “A Method of Computing the Effectiveness of an Insecticide” J. Econ. Entomol 18 (1925), pp. 265-267) as follows. Corrected % Control=100*(X−Y)/X • where • X=No. of live aphids on solvent check plants and • Y=No. of live aphids on treated plants
The results are indicated in the table entitled “Table 1: GPA (MYZUPE) and sweetpotato whitefly-crawler (BEMITA) Rating Table”.

[2] = system: Sweetpotato Whitefly Crawler (Bemisia tabaci) (BEMITA); assay: Bioassays on Sweetpotato Whitefly Crawler, foliar spray on cotton plants; format: in vivo; details: read-out: BEMITA rating (% Control of Mortality)
Protocol: Cotton plants grown in 3-inch pots, with 1 small (3-5 cm) true leaf, were used at test substrate. The plants were placed in a room with whitely adults. Adults were allowed to deposit eggs for 2-3 days. After a 2-3 day egg-laying period, plants were taken from the adult whitefly room. Adults were blown off leaves using a hand-held Devilbliss sprayer (23 psi). Plants with egg infestation (100-300 eggs per plant) were placed in a holding room for 5-6 days at 82° F. and 50% RH for egg hatch and crawler stage to develop. Four cotton plants were used for each treatment. Compounds (2 mg) were dissolved in 1 mL of acetone solvent, forming stock solutions of 2000 ppm. The stock solutions were diluted 10× with 0.025% Tween 20 in water to obtain a test solution at 200 ppm. A hand-held Devilbliss sprayer was used for spraying a solution to both sides of cotton leaf until runoff. Reference plants (solvent check) were sprayed with the diluent only. Treated plants were held in a holding room for 8-9 days at approximately 82° F. and 50% RH prior to grading. Evaluation was conducted by counting the number of live nymphs per plant under a microscope.

Structure (SMILES)	mortality at 200 ppm [1]	mortality at 200 ppm [2]	mortality at 200 ppm ([1]; 200 ppm spray on cabbage seedlings, graded after three days, Abbott's correction, live aphids)
CCNc1c[nH]nc1Cl [Compound 7a, 3-Chloro-N-ethyl-1H-pyrazol-4-amine]	< 0%		
Nc1c[nH]nc1Cl [Compound 1a, 3-chloro-1H-pyrazol-4-amine hydrochloride]	0 to 80%	0 to 80%	
CCN(C(=O)CCSCCC(F)(F)F)c1c[nH]nc1Cl [Compound 4.7, N-(3-chloro-1H-pyrazol-4-yl)-N-ethyl-3-((3,3,3-trifluoropropyl)thio)propanamide]			< 0%
